Where two headings read alike, the source gives them in different places.
What was measured:
[1] = cited from earlier work
in vivo = settings: male, C57Bl/6, mouse
Protocol: The goals of these studies were to evaluate the PK of memantine (hydrochloride salt) in Sprague-Dawley rats and C57Bl/6 mice following a single intravenous bolus (iv; 1 mg eq./kg), oral gavage (po; 1 and 10 mg eq./kg), or subcutaneous (sc; 1 and 10 mg eq./kg) administration.
Sprague Dawley (SD) rats (138 adult males), and C57Bl/6 mice (140 adult males), were obtained (Hilltop Laboratories, Scottsdale, PA); 123 per species were used in the study and the remainder provided blank matrix. Animals were individually identified by tail markings and were acclimated to the study environment for 16-21 days prior to dose administration. Animals were individually housed in suspended wire caging, and were kept on a 12h/12h light/dark cycle except when interrupted for study procedures. Average room temperature was regulated in the range 18 to 29°C, average relative humidity of 30-70%, and an average daily airflow >10 fresh air changes/h. Animals were fed LabDiet^Ò Certified Rodent Diet 5002 Meal food ad libitum, except during fasting prior to dose administration, and had access to water ad libitum.
Memantine was dosed as a solution in physiological saline as a single dose via intravenous bolus (1 mg eq./kg), oral gavage (po; 1 and 10 mg eq./kg), or subcutaneous (sc; 1 and 10 mg eq./kg) administration. The concentration of memantine in the 1 mg eq./kg iv, po, and sc solutions dosed to rats was 1 mg eq./mL, and the dose volume was 1 mL/kg. The concentration of memantine for the same dose level administered to mice was 0.2 mg eq./mL, and the dose volume was 5 mL/kg. The concentration of memantine in the 10mg eq./kg po and sc solutions was 5 mg eq./mL and the dose volume was 2 mL/kg for both rats and mice.
Details of the dose administration, body weights, clinical observations, plasma and brain sample collection and preparation are not shown in this report but are available upon request. Blood (for preparation of plasma) and brain samples were collected at 0.08, 0.25, 0.5, 1, 2, 4, 8, and 24h post-dose.
Since all time points were terminal, mean memantine concentrations per time point were used to calculate the composite PK parameters by non-compartmental analysis using WinNonlin program, version 5.2 (Pharsight Corp., Mountain View, California). A model was selected based on the vascular (iv bolus) or extravascular (po or sc) routes of administration. For the iv route, plasma concentration at time zero was back extrapolated from the first two observed post dose plasma concentrations. For the po and sc routes, concentration at time zero was assumed to be zero. Plasma and tissue concentrations below the limit of quantitation were treated as absent samples for the purpose of calculating the mean plasma concentration values or for calculating PK parameters.
The area under the plasma concentration versus time curve (AUC) was calculated using the linear trapezoidal method (linear interpolation). When appropriate, the terminal elimination phase of the PK profile was estimated based on the best fit (r^2) using at least the last three observed concentrations. PK parameters describing the systemic exposure of memantine in plasma and brain were estimated from observed (rather than predicted) plasma/brain concentrations, the dosing regimen, the AUC, and the terminal elimination phase rate constant (kel) for each group. The portion of the AUC from the last measurable concentration to infinity was estimated from the equation Ct/kel, where Ct represents the last measurable concentration. The extrapolated portion of the AUC was used for the determination of AUC0-∞. The percent bioavailability (%F) was calculated by dividing the dose normalized extravascular plasma AUC0-∞ by the dose normalized iv plasma AUC0-∞ times 100. The bioavailability calculations assumed concentrations were in the linear range.
Concentrations of memantine in rat and mouse plasma and brain were determined using an LC-MS/MS assay developed at ABC Laboratories.

CC12CC3CC(C)(C1)CC(N)(C3)C2 [memantine]
Cmax ([1]; human plasma/serum, 10 mg twice daily po, normal renal clearance): 83.5 ng/mL
Cmax ([1]; human plasma/serum, 10 mg twice daily, read-out: Cmax): 470 nM
Cmax ([1]; human, 10 mg BID po, read-out: Cmax): 470 nM
C min ([1]; human, 10 mg BID): 300 nM
Cmax/Cmin ratio at steady state ([1]; human, 10 mg BID): 1.54
renal clearance as share of total systemic clearance ([1]; human, acidic conditions): 92%
renal clearance as share of total systemic clearance ([1]; human, alkaline conditions): 60-67%
Total plasma clearance (Clp) ([1]; human, normal renal function): 182 mL/min
renal clearance (Clr) ([1]; human, normal renal function): 164 mL/min
share of total plasma clearance accounted for by renal clearance ([1]; human, normal renal function): 90%
Tmax ([1]; human, po): 4 to 6 h
dose eliminated as intact memantine in the urine ([1]; human): 75-90%
elimination half-life ([1]; human): 60 to 80 h
volume of distribution at steady state (Vdss) ([1]; human): 9 to 11 L/kg
Cmax and exposures increase, fold more than dose-proportional (in vivo): ~ 1.5 fold
Cmax/Cmin ratios (in vivo): > 100
Contribution of active transport to clearance (in vivo): > 100%
delay in Tmax for brain compared to plasma (in vivo): 0.25 to 1.5 h
elimination half-life (in vivo): < 4 h
total systemic clearance, times higher than GFR (in vivo): ~4.5 fold
C max/ C min ratio (in vivo; 10 mg/kg): 760
concentration at 24 h (in vivo; 10 mg/kg): 10 nM
Tmax (in vivo; 10 mg/kg, T max): 0.5 to 1 h
Tmax (in vivo; Tmax after extravascular administration): 0.25 to 0.5 h
half-life (in vivo; brain elimination half-lives after extravascular administrations): 2.16 to 3.05 h
half-life (in vivo; elimination half-life): 3 to 4 h
Cmax (in vivo; in vivo, iv, 1 mg/kg): 7700 nM
Cmax (in vivo; in vivo, sc, 1 mg/kg): 527 nM
Half-life (t½) (in vivo; iv, 1 mg/kg): 2.98 h
MRT inf (in vivo; iv, 1 mg/kg): 2.35 h
clearance (in vivo; iv, 1 mg/kg): 63.5 mL/min/kg
half-life (in vivo; iv, 1 mg/kg, Half-life (t½)): 1.97 h
Tmax (in vivo; iv, 1 mg/kg, Observed Tmax): 1 h
half-life (in vivo; iv, t 1/2): 3 h
bioavailability (in vivo; po): 85%
Half-life (t½) (in vivo; po, 1 mg/kg): 3.02 h
bioavailability (in vivo; po, 1 mg/kg): 84.6%
AUC(0-inf) (in vivo; po, 1 mg/kg): 1.2 µM·h
Cmax (in vivo; po, 1 mg/kg, C max): 500 nM
half-life (in vivo; po, 1 mg/kg, Half-life (t½)): 1.86 h
Tmax (in vivo; po, 1 mg/kg, Observed Tmax): 0.5 h
Tmax (in vivo; po, 1 mg/kg, T max): 0.5 h
Half-life (t½) (in vivo; po, 10 mg/kg): 3.05 h
bioavailability (in vivo; po, 10 mg/kg): 125%
AUC(0-inf) (in vivo; po, 10 mg/kg): 18.2 µM·h
Cmax (in vivo; po, 10 mg/kg, C max): 7600 nM
half-life (in vivo; po, 10 mg/kg, Half-life (t½)): 2.92 h
Half-life (t½) (in vivo; sc, 1 mg/kg): 2.16 h
bioavailability (in vivo; sc, 1 mg/kg): 97.8%
half-life (in vivo; sc, 1 mg/kg, Half-life (t½)): 1.64 h
Cmax (in vivo; sc, 1 mg/kg, Observed Cmax): 5360 nM
Half-life (t½) (in vivo; sc, 10 mg/kg): 3.00 h
bioavailability (in vivo; sc, 10 mg/kg): 150%
half-life (in vivo; sc, 10 mg/kg, Half-life (t½)): 3.07 h

— publication PMC3269340, “Pharmacokinetics of memantine in rats and mice” (PLoS Currents, 2012)
